The values that follow come from patent publication US4478834A, “Dihydropyridines and their use in the treatment of asthma” (USV Pharmaceutical Corporation, priority 1983, dated 1984).

SMILES strings stand for the structures.

Assay [1] is described as follows: Blood pressure in spontaneously hypertensive [SHR] rats. The class given is in vivo, rat. To be noted: intraperitoneal (ip) dose of 100 mg/Kg, over 2 hours duration. The protocol:
In spontaneously hypertensive [SHR] rats (as described in Laffan, R. J., Patterson, A., Hitch, S. W., Jeunelot, Technique for Prolonged Continuous Recording of Blood Pressures of Unrestricted Rats, Cardiovascular Research, Vol. 6, pp. 319-24, 1972),3,10b-dihydro-2,4-dimethyl-5-oxo-5H[1]benzopyrano[3,4-C]pyridine-1-carboxylic acid ethyl ester (Example 4D) administered intraperitoneal (ip) dose of 100 mg/Kg reduced blood pressure by 17-22% over 2 hours duration.

The subject of assay [2] is Cyclic Nucleotide Phosphodiesterase (cNUC-PDE). Briefly: Cyclic Nucleotide Phosphodiesterase (cNUC-PDE) Assay. The class given is biochemical. The settings on record: compounds initially tested at 100 μM; enzyme source (dog heart or rat mast cell) not given. The procedure: Cyclic Nucleotide Phosphodiesterase (cNUC-PDE) Assay: CNUC-PDE was measured by a modification of the one-step procedure described by Thompson et al. (1979). The reaction was carried out in 7 ml scintillation vials. The reaction mixture consisted of 5 mM MgCl2., 50 mM tris-(hydroxymethyl)aminomethane buffered to pH 8.0 at 37° C. with hydrochloric acid (Tris-chloride), 1-2×10^5 cpm ^3 H-labeled cyclic nucleotide substrate, appropriate concentration of non-labeled cyclic nucleotide, 25 μg/ml lyophilized Ophiophagus hannah venom and appropriate enzyme for linear reaction conditions. The timed reactions were initiated by the addition of an enzyme, incubated at 37° C. for appropriate times for linear reaction rates, and stopped with the addition of 0.8 ml of 50% (v/v) AG 1×8 (200-400 mesh) ion-exchange resin in 50% (v/v) ethanol-Tris-acetate buffer (pH 8.0). The vials were vortexed and the resin mixture allowed to equilibrate for 15 min at 4° C. Scintillation fluid (4.5 ml) was added and radioactivity quantitated in a liquid scintillation counter.
Dog Heart Enzyme Preparations: Mongrel dogs were overdosed with Nembutal® and their hearts surgically removed. […]
Mast Cell Enzyme Preparations: Peritoneal cells were collected and mast cells purified by a procedure similar to that described by Yurt et al., (1977). […] The cells ([…]) were counted with a haemocytometer. […]

The test system of another assay is guinea pig lung. Briefly: guinea pig lung inhibition. The procedure: The activity of a compound is expressed as % inhibition of net antigen-induced histamine release. In the case of an active compound the concentration of the compound required for 50% inhibition for AIR (I50) is determined.

For `CCOC(=O)C1=C(C)NC(C)=C2C(=O)Oc3ccccc3C12` (stereo not drawn) [Example 4D, 3,10b-Dihydro-2,4-dimethyl-5-oxo-5H[1]benzo-pyrano[3,4-c]pyridine-1-carboxylic acid ethyl ester], in assay [1], the reduced blood pressure is 17-22%.

As for `CCOC(=O)C1=C(C)NC(C)=C2C(=O)Nc3ccccc3C21` (stereo not drawn) [Example 3C, 3,5,6,10b-Tetrahydro-2,4-dimethyl-5-oxo-benzo[c][2,7]naphthyridine-1-carboxylic acid ethyl ester], the PDE inhibition in assay [2] was less than 60%. The “guinea pig lung inhibition” value in the assay with guinea pig lung is recorded as less than 50%.
